Results on one compound are retold here after patent US4742062A, “Benzylpiperazine compound and pharmaceutical composition as hypolipidemic agent” (Kanebo, Ltd., priority 1985, dated 1988).

Data set [1] can be described thus: Test of acute toxicity (LD50) in mice (Experiment 6). The following applies: mouse, in vivo, po, orally, 7 days observation, Weil method. In kind it is in vivo. The source says:
(§1) ddY male mice (weighing 20-25 g, one group: 5 mice) were orally administered with a suspension of the test compound in 3 w/v % aqueous gum arabic solution.

Data set [2] concerns mice. The description is as above. It is filed as in vivo. To be noted: orally, result in words.
Description: as §1

The structures appear in SMILES notation.

What is called LD50 is the dose expected to kill half of the subjects tested. A low value points to greater toxicity.

On to `Cl.Cl.Clc1ccc(CN2CCN(CC=Cc3ccc(Cl)cc3Cl)CC2)cc1` [Compound of this invention, 1-(4-Chlorobenzyl)-4-(2,4-dichlorocinnamyl)-piperazine dihydrochloride], for which the median lethal dose (LD50) at 168 h in data set [1] was found to be 996 mg/kg. The acute toxicity entry in data set [2] was “low acute toxicity”.
